Like-named read-outs stand apart in the source and are kept apart here.

In assay [1] the target is T1, 5-lipoxygenase (Cavia porcellus, UniProt A0A286X958).
T1 construct: 0.2 ml of the supernatant obtained from the PMNL sonicate; endogenous in cells; host or cells: casein-elicited guinea pig peritoneal polymorphonuclear leukocytes (PMNL), sonicate, 30,000 x g supernatant
T1 sequence (A0A286X958 1-674): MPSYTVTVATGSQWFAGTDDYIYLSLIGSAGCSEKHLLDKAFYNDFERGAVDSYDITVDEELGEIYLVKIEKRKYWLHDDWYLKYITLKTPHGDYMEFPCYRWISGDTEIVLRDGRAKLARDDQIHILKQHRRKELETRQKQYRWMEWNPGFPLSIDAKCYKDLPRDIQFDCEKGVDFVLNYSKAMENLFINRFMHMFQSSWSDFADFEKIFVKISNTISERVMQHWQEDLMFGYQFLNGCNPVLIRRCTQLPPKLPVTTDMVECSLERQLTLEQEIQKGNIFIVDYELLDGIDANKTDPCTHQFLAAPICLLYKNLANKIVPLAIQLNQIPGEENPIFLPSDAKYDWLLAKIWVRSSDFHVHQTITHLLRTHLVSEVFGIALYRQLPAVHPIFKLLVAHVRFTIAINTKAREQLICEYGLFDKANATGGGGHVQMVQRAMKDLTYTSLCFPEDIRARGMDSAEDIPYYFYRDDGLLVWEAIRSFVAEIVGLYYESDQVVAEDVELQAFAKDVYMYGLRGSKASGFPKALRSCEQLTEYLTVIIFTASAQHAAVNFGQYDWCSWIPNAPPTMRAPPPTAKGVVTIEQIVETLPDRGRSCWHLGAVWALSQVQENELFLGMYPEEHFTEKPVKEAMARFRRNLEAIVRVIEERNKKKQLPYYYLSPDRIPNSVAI
Briefly: 5-Lipoxygenase (5-LO) Assay: 5-HETE formation in supernatant of guinea pig PMNL sonicate. Format: biochemical. As for the experimental part:
Ten milliliters of a 2% casein solution is injected intraperitoneally to guinea pigs weighing 250-300 gm. After 16-18 hours, the guinea pigs are killed by suffocation in a carbon dioxide chamber. The peritoneal cavity is infused with 70 ml of saline and 40-50 ml of the fluid is recovered from the cavity. After centrifugation, cell pellets are washed twice in Hank's balanced salt solution (HBSS) without calcium ion.
The cells are then suspended in 5 ml of sodium phosphate buffer, pH 7.1 containing 1 mM, ethylene diamine tetraacetic acid (EDTA), and 0.1% gelatin. About 20-30×10^7 cells are obtained from one guinea pig.
The PMNL suspension is disrupted by five 1/2-second pulse sonication at the setting of 3 in a Branson Sonifier, Model 350, equipped with a microtip. The sonicates are combined and centrifuged at 30,000 ×g for 10 minutes. The supernatant is kept frozen at -70° C. until use.
Enzyme activity is determined by assaying for 5-hydroxy-6,8,11,14-eicosatetraenoic acid (5-HETE) formation by first incubating 0.2 ml of the supernatant obtained from the PMNL sonicate with the test compound, 1 mM CaCl2, 2 mM ATP, and 1 mM GSH for 5 minutes at 37° C. The mixture is treated with […] ^14 C-arachidonic acid and incubated at 37° C. an additional 10 minutes. The enzyme reaction is then stopped by the addition of 10 μl of 1M citric acid and 10 μl of an alcohol solution containing 20 mg/ml each of indomethacin and butylated hydroxyanisole (BHA). The reaction mixture is spotted (50 μl) on a silica gel plate (Baker TLC plate S1250-PA-19C) and subjected to TLC in a solvent system of ethyl acetate/2,2,4-trimethylpentane/glacialacetic acid/H2 O (90:50:20:100).
The radioactivity of the arachidonic acid and its metabolites (5-HETE and LTB4) is visualized from a developed x-ray film which had been exposed to the TLC plate 1-2 days. The amount of 5-HETE formed is quantitated by scraping the silica gel area corresponding to the spot on the x-ray film, and the radioactivity determined in a Isocap/300 liquid scintillation counter (Searle Analytic, Inc.).
The percent inhibition of the formation of 5-HETE is determined for each concentration of compound tested as compared to a control experiment wherein no test compound is added. The concentration and percent values are plotted on semi log paper and the concentration in which formation of 5-HETE is inhibited by 50% (IC50) is determined by interpolation.

Assay [2] relates to polymorphonuclear leukocytes (PMNs). The assay is described as follows: H-PMN Assay: LTB4 content of supernatant of A23187-stimulated human PMNs by radioimmunoassay. The assay is classed as cell-based. The conditions noted are these: Leukocyte. As for the experimental part:
Sodium citrated venous blood is drawn from normal human subjects. After centrifugation at 300 ×g for 15 minutes, the platelet-rich layer of plasma is discarded and an equal volume of Hanks' balanced salt solution (HBSS) is added to the enriched cell fraction. This platelet-depleted cell suspension is then layered on an equal volume of Ficoll-Paque. After centrifugation for 40 minutes at 300 ×g, the bottom layer containing erythrocytes and polymorphonuclear leukocytes (PMNs) is diluted with two volumes of a 0.2% methocel solution. The erythrocytes are sedimented upon standing for 15 minutes, and the supernatant containing the PMNs is aspirated and centrifuged at 300 ×g, for 5 minutes. The cell pellet is then exposed to 0.2% NaCl for 30 seconds to lyse any remaining erythrocytes, and the ionic strength of the suspension is readjusted to 0.9% with NaCl. The PMNs are recovered by centrifugation at 300 ×g for 5 minutes and are suspended in HBSS to a concentration of 2 ×10^6 cells/ml.
The test compounds are dissolved in and diluted with dimethylsulfoxide (DMSO) which also contains 2×10^-6 M of the calcium ionophore, A23187. To 1 ml of the PMN suspension, 10 μl of the DMSO solution is added, and the mixture is incubated at 37° C. for 10 minutes. The PMNs are rapidly pelleted in a microcentrifuge, and the supernatant is kept at -20° C. for future determination of LTB4 content via the radioimmunoassay.

Where [3] appears, read: Table II, guinea pig PMNL sonicate supernatant, 14C-arachidonic acid, 37° C., read-out: 5-LO (concentration in which formation of 5-HETE is inhibited by 50%, IC50).
The mark [4] stands for this setting: 10 min, Table II, human PMNs, calcium ionophore A23187, 37° C. for 10 minutes, LTB4 by radioimmunoassay.
Setting [5] is: second table (Table III), known hydroxamic acid derivatives as comparison, read-out: 5-Lo (IC50).
Setting [6] is: Homo sapiens, second table (Table III), known hydroxamic acid derivatives as comparison.

On to `CCCCCCc1ccc(C=CC(=O)N(C)O)c(SC)c1` [Example 19, 2-methylthio-4-n-hexyl-N-hydroxy-N-methylcinnamamide], for which the IC50 in assay [1] (setting [3]) turned out to be 82 nM; in assay [2] (setting [4]), 25 nM.

As to `CCCCCCc1cccc(C=CC(=O)N(C)O)c1[S+](C)[O-]` (stereo not shown) [Example 20, 2-methylsulfinyl-3-n-hexyl-N-hydroxy-N-methylcinnamamide], the IC50 was determined as 459 nM in assay [1] (setting [3]) and 190 nM in assay [2] (setting [4]).

As for `CCCCCCc1cccc(C=CC(=O)N(C)O)c1S(C)(=O)=O` [Example 21, 2-methylsulfonyl-3-n-hexyl-N-hydroxy-N-methylcinnamamide], the IC50 in assay [1] (setting [3]) was determined as 166 nM; in assay [2] (setting [4]) it was 461 nM.

Turning to `CSc1ccccc1C=CC(=O)N(C)O` [Example 23, 2-methylthio-N-hydroxy-N-methyl-cinnamamide], the IC50 in assay [1] (setting [3]) was 392 nM; in assay [2] (setting [4]), 100 nM.

Turning to `CSc1ccc(CCCc2ccccc2)cc1C=CC(=O)N(C)O` [Example 27, 2-(methylthio)-5-(3-phenylpropyl)-N-hydroxy-N-methylcinnamamide], the IC50 in assay [1] (setting [3]) is 26 nM; in assay [2] (setting [4]), 18 nM.

For `CCCCSc1ccc(CCCc2ccccc2)cc1C=CC(=O)N(C)O` [Example 29, 2-n-butylthio-5-(3-phenylpropyl)-N-hydroxy-N-methylcinnamamide], the IC50 in assay [1] (setting [3]) stood at 94 nM; in assay [2] (setting [4]), 58 nM.

For `CCc1ccc(CCCc2ccccc2)cc1C=CC(=O)N(C)O` [Example 30, 2-ethyl-5-(3-phenylpropyl)-N-hydroxy-N-methylcinnamamide], the IC50 in assay [1] (setting [3]) was 59 nM; in assay [2] (setting [4]), 46 nM.

Turning to `CN(O)C(=O)C=Cc1ccccc1SCc1ccccc1` [Example 31, 2-benzylthio-N-hydroxy-N-methylcinnamamide], the IC50 in assay [1] (setting [3]) stood at 33 nM; in assay [2] (setting [4]), 7 nM.

Take `CCCCSc1ccccc1C=CC(=O)N(C)O` [Example 33, 2-(n-butylthio)-N-hydroxy-N-methylcinnamamide]: the IC50 in assay [1] (setting [3]) worked out at 47 nM; in assay [2] (setting [4]), 22 nM.

On to `CN(O)C(=O)C=Cc1ccccc1SCCCc1ccccc1` [Example 35, 2-[1-(3-phenylpropyl)thio]-N-hydroxy-N-methylcinnamamide], for which the IC50 is 9 nM in assay [1] (setting [3]) and 16 nM in assay [2] (setting [4]).

`CN(O)C(=O)C=Cc1ccccc1Cc1ccccc1` [Example 37, 2-benzyl-N-hydroxy-N-methylcinnamamide]: the IC50 amounted to 53 nM in assay [1] (setting [3]) and 28 nM in assay [2] (setting [4]).

With `CCCCCCCCSc1ccccc1C=CC(=O)N(C)O` [Example 38, 2-n-octylthio-N-hydroxy-N-methylcinnamamide], the IC50 in assay [1] (setting [3]) turned out to be 28 nM; in assay [2] (setting [4]), 11 nM.

In the case of `CC(C)CSc1ccccc1C=CC(=O)N(C)O` [Example 40, 2-[1-(2-methylpropyl)thio]-N-hydroxy-N-methylcinnamamide], the IC50 in assay [1] (setting [3]) worked out at 52 nM; in assay [2] (setting [4]) it was 17 nM.

Regarding `CN(O)C(=O)C=Cc1ccccc1CCCc1ccccc1` [Example 43, 2-(3-phenylpropyl)-N-hydroxy-N-methylcinnamamide], the results for the IC50 in assay [1] (setting [3]) and in assay [2] (setting [4]) were 60 nM and 12 nM, respectively.

Turning to `CN(O)C(=O)C=Cc1ccccc1SCCCCCC(F)(F)F` [Example 44, 2-[1-(5-trifluoromethylpentyl)thio]-N-hydroxy-N-methylcinnamamide], the IC50 came to 31 nM in assay [1] (setting [3]) and 17 nM in assay [2] (setting [4]).

Take `CCCCCCc1ccc(SC)c(C=CC(=O)N(C)O)c1` [Example 45, 2-methylthio-5-n-hexyl-N-hydroxy-N-methylcinnamamide]: the IC50 was determined as 58 nM in assay [1] (setting [3]) and 20 nM in assay [2] (setting [4]).

Regarding `COc1ccccc1C=CC(=O)N(C)O` [reference compound], the results for the IC50 in assay [1] (setting [5]) and in assay [2] (setting [6]) were 1200 nM and 143 nM, respectively.

As to `CCCCSc1ccc(CCCc2ccccc2)cc1C(=O)N(C)O` [reference compound], the IC50 came out at 178 nM in assay [1] (setting [5]) and 440 nM in assay [2] (setting [6]).

As for `CN(O)C(=O)C=Cc1ccccc1OCc1ccccc1` [reference compound], the IC50 amounted to 54 nM in assay [1] (setting [5]) and 42 nM in assay [2] (setting [6]).

Regarding `CCCCOc1ccccc1C=CC(=O)N(C)O` [reference compound], the IC50 in assay [1] (setting [5]) amounted to 41 nM; in assay [2] (setting [6]) it was 52 nM.

The values are drawn from patent US5028629A, “5-Lipoxygenase inhibitors” (Eli Lilly and Company, priority 1990, dated 1991).
